Like-named read-outs stand apart in the source and are kept apart here. Numbered stars: 1 amine (or outer) side, 2 acyl side, 3 side chain; on linkers, the order of the positions; unused ones are H or OH. Square brackets hold non-standard residues; d marks the D form. Peptide text beside a SMILES is read from it. * marks the point of attachment. Doxorubicin(3'-N) = COc1cccc2c1C(=O)c1c(O)c3c(c(O)c1C2=O)C[C@@](O)(C(=O)CO)C[C@@H]3O[C@H]1C[C@H](N*)[C@H](O)[C@H](C)O1; Glutaryl = O=C(CCCC(=O)[*:2])[*:1]; Hyp = O=C(O)[C@@H]1C[C@@H](O)CN1; Chg = N[C@H](C(=O)O)C1CCCCC1; X1 = O=C(O)CCCNC(=O)CC(=O)*
What was measured:
LNCaP cells = assay: cells; conditions: for IC50: read-out: LNCaP IC50
Method: (§1) Monolayer cultures of PSA-secreting LNCaP and non-PSA-secreting DU145 human prostate carcinoma cells were conducted in growth medium in a CO2 incubator under a humidified atmosphere at 37° C. for 3 weeks prior to initiating cytotoxicity experiments. During cell growth, media were changed every 3 days and trypsinization carried out at 80% confluence with a 1:4 split for subsequent cultures. Cells were grown on 96-well plates for 48 h at initial concentrations of 5000 cells/well. At the end of the 48-h period, the growth medium was replaced by serum-free medium RPMI 1640 medium containing L-glutamine (2 mM), 2% TCM, penicillin G (100 units/mL) and streptomycin sulfate (100 units/mL), and prodrugs added to wells at concentrations ranging from 0.07 to 100 μM. The plates were incubated at 37° C. for 72 h under a humidified CO2 atmosphere, and cell viability determined using the MTT assay. Briefly, 10 μL aliquots of a 12 mM MTT solution were added to wells and the plates incubated in a CO2 incubator under a humidified atmosphere at 37° C. for 4 h. Well contents were then solubilized with 1% SDS (100 μL/well) for 12 h, and OD570 values measured on a Dynatech MR5000 plate reader. Cell viability was computed as a percentage of control growth, and IC50 values determined as the concentration at which cell growth is inhibited by 50%.
(§2) To assess cytotoxicity and tumor selectivity, all prodrugs were incubated in cultured cell lines secreting (LNCaP) or lacking (DU145) PSA for a period of 72 h. Doxorubicin was used as a positive control and cell viability determined at the end of the incubation period using an MTT assay. It was anticipated that peptide prodrugs would be activated extracellularly in LNCaP, but not DU145 cells, by the proteolytic action of PSA releasing doxorubicin that would ultimately lead to cell death.

DU145 cells = assay: Prodrug cytotoxicity in non-PSA-secreting DU145 cells (MTT assay), selectivity; format: cell-based, human; conditions: LNCaP versus non-PSA-secreting DU145 cells, 72 h
Method: as §1, §2

tumor cells = conditions: cited from earlier work
human PSA = human PSA (Homo sapiens, UniProt P07288); assay: Hydrolysis of doxorubicin prodrugs by PSA (PSA enzyme assay, LC-MS/MS prodrug disappearance); conditions: for % of prodrug at 60 min: prodrug 1 μM incubated with human PSA 1 μM, 50 mM Tris buffer pH 8, 37° C.
Chain of human PSA (P07288 25-261): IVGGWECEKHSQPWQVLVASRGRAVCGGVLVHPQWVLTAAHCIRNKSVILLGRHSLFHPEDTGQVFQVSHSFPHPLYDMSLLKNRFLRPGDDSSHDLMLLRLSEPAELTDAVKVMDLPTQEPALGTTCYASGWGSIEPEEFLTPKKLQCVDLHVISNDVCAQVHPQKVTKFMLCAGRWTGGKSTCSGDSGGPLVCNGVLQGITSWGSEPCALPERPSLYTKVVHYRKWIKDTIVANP
Method: (§3) For doxorubicin conjugates, peptide solution concentrations were determined by measuring the UV absorbance at 484 and 254 nm (20 μM for doxorubicin and 50 μM for phosphoramide mustard conjugates, respectively) of solutions prepared (based on weight) in water from 10 mM DMSO stock solutions. Using the extinction coefficients of doxorubicin at 484 nm (10,800 M-1·cm-1), peptide concentrations were calculated and adjusted accordingly to prepare 100 μM solutions in 50 mM Tris buffer, pH 8 containing 2 mM CaCl2 and 0.1% Tween 20. […] Peptide solutions were prepared in Tris buffer pH 8 at a concentration of 1.11 μM from 1 mM DMSO stock solutions, and warmed up to 37° C. Reactions were initiated at 37° C. with the addition of 5 μL aliquots of a 10 μM solution of human PSA to 45 μL aliquots of the 1.11 μM peptide solutions in eppendorf vials (total volume 50 μL, final PSA concentration 1 μM), and time points recorded over a period of 3 h. Reactions were terminated at 0, 10, 20, 30, 60, 120, 180 and 360 min by quenching 2 μL aliquots of incubates with 20 μL of chilled 50% ACN containing 0.1 μM internal standard (IS) and 0.1% formic acid (FA) pre-added to eppendorf vials. Samples were centrifuged at 3000 RPM for 15 min and the supernatants analyzed by LC-MS/MS in SRM mode as previously described. The fraction of prodrug remaining at each time point was calculated by dividing the prodrug/IS ratio by the 0-h prodrug/IS area ratio and half-life determined from prodrug disappearance rate.
(§4) Substrate disappearance was monitored by LC-MS/MS analysis using SRM. The percentage of prodrug remaining at any given time point was computed by taking the ratio of its peak area response and that of the 0-h time point.

[1] = target: PSA (prostate-specific antigen) (Homo sapiens, UniProt P07288); assay: as above; conditions: human, pH 8
Chain of PSA (prostate-specific antigen) (P07288 25-261): as above
Method: as §3, §4

[2] = 72 h incubation, MTT assay, PSA-secreting LNCaP cells

Structure (SMILES)	Selectivity against DU145 (DU145 cells)	IC50 (LNCaP cells; [2])	% of prodrug at 60 min (human PSA)	cytotoxicity against PSA-secreting LNCaP cells (in words) (LNCaP cells; 72 h, MTT assay)	half-life at 1 μM [1]	also measured
COc1cccc2c1C(=O)c1c(O)c3c(c(O)c1C2=O)C[C@@](O)(C(=O)CO)C[C@@H]3O[C@H]1C[C@H](N)[C@H](O)[C@H](C)O1 [Dox, Doxorubicin]	1	–	–	–	–	IC50 (LNCaP cells; Homo sapiens, LNCaP, 72 h): < 70 nM; times more potent than Leu-Doxorubicin at killing tumor cells (tumor cells): 10 times
COc1cccc2c1C(=O)c1c(O)c3c(c(O)c1C2=O)C[C@@](O)(C(=O)CO)C[C@@H]3O[C@H]1C[C@H](NC(=O)[C@@H](N)CC(C)C)[C@H](O)[C@H](C)O1 [Leu-Doxorubicin]	–	–	–	–	–	fold less cytotoxic (than doxorubicin) (tumor cells; Wong et al. (2001)): 10 fold
COc1cccc2c1C(=O)c1c(O)c3c(c(O)c1C2=O)C[C@@](O)(C(=O)CO)C[C@@H]3O[C@H]1C[C@H](NC(=O)[C@H](CC(C)C)NC(=O)[C@H](CO)NC(=O)[C@H](CCC(N)=O)NC(=O)[C@@H](NC(=O)[C@H](CO)NC(=O)[C@H](C)NC(=O)[C@@H]2C[C@@H](O)CN2C(=O)CCCC(=O)O)C2CCCCC2)[C@H](O)[C@H](C)O1 [Prodrug 1, Glutaryl-Hyp-Ala-Ser-Chg-Gln-Ser-Leu-Dox] (Glutaryl-[Hyp]AS[Chg]QSL-{Doxorubicin(3'-N)})	560	180 nM	13%	–	–	–
COc1cccc2c1C(=O)c1c(O)c3c(c(O)c1C2=O)C[C@@](O)(C(=O)CO)C[C@@H]3O[C@H]1C[C@H](NC(=O)[C@H](CC(C)C)NC(=O)[C@H](CO)NC(=O)[C@H](CCC(N)=O)NC(=O)[C@@H](NC(=O)[C@H](CO)NC(=O)[C@H](C)NC(=O)[C@H](CO)NC(=O)CCCC(=O)O)C2CCCCC2)[C@H](O)[C@H](C)O1 [Prodrug 2, Glutaryl-Ser-Ala-Ser-Chg-Gln-Ser-Leu-Dox] (Glutaryl-SAS[Chg]QSL-{Doxorubicin(3'-N)})	370	270 nM	12%	–	–	–
COc1cccc2c1C(=O)c1c(O)c3c(c(O)c1C2=O)C[C@@](O)(C(=O)CO)C[C@@H]3O[C@H]1C[C@H](NC(=O)[C@H](CC(C)C)NC(=O)[C@H](CO)NC(=O)[C@H](CCC(N)=O)NC(=O)[C@@H](NC(=O)[C@H](CO)NC(=O)[C@H](C)NC(=O)CC(=O)NCCCC(=O)O)C2CCCCC2)[C@H](O)[C@H](C)O1 [Prodrug 3, GABA←mGly-Ala-Ser-Chg-Gln-Ser-Leu-Dox] (X1-AS[Chg]QSL-{Doxorubicin(3'-N)})	–	–	–	most cytotoxic prodrug	22 min	–
COc1cccc2c1C(=O)c1c(O)c3c(c(O)c1C2=O)C[C@@](O)(C(=O)COC(=O)C(C)(C)CONC(=O)[C@H](CCC(N)=O)NC(=O)[C@@H](NC(=O)[C@H](CO)NC(=O)[C@H](C)NC(=O)CC(=O)NCCCC(=O)O)C1CCCCC1)C[C@@H]3O[C@H]1C[C@H](N)[C@H](O)[C@H](C)O1 [Prodrug 4, GABA←mGly-Ala-Ser-Chg-Gln-NH—O—CH2—C(Me)2C(O)-14-O-Dox]	–	–	–	comparable to that of L-377,202	67 min	cytotoxin released by the prodrug (human PSA; PSA-mediated hydrolysis, LC-MS with accurate mass (FIG. 10)): free doxorubicin

From patent US11628221B2, “Peptide linker and combination for prodrugs activated by prostate-specific antigen” (priority 2017, dated 2023)
